Measured values reported in patent publication US11517530B2, “Therapeutic agents specifically delivered by exosomes for cancer treatment” (The Board of Trustees of the Leland Stanford Junior …, priority 2017, dated 2022).

Assays:
[1] = earlier PK/PD studies; cited from earlier work
[2] = test system: 4T1 murine mammary cells that endogenously generated HChrR6 enzyme; conditions: initial studies; cited from earlier work
[3] = test system: orthotopically implanted BT474 tumors; assay: In vivo assay for EXO-DEPT EV functionality, tumor growth; design: species or system nu/nu mice; conditions: 2×10^9 EVs i.p., CNOB 3.3 mg/kg i.v.
Method: In vivo assays for EXO-DEPT EV functionality. All animal experiments were performed in accordance with protocols approved by Stanford University Institutional Animal Care and Use Committee. Number of mice required for this study was determined by power analysis using the G*Power 3.1.5 power calculator (Universitat Dusseldorf) for F-tests of one-way ANOVA by setting Type I error at 5% (alpha=0.05); power was kept at 0.8, and the number of treatment groups=5. The effect size f was calculated as 0.707. This number was then used to determine total sample size of 30 with 6 mice per treatment group (n=6). […] Tumor size was monitored by caliper at two-day intervals, and tumor volume was calculated using the formula: tumor width^2×its length/2. […]
The effect of administration of EXO-DEPT EVs along with CNOB was tested on orthotopically implanted BT474 tumors in athymic mice; the treatment schedule (FIG. 4E) was guided by earlier PK/PD studies. […] After measurable implanted tumors in mice were detected, they were randomly allocated into 5 treatment groups (n=6): untreated; loaded EVs only; CNOB only; undirected loaded EVs+CNOB; and EXO-DEPT-EVs+CNOB. […]
Each mouse was measured at nine time periods, days 0,3,7,11,16,19,24,28,32. A linear regression of tumor burden versus day was fit for each mouse, by ordinary least squares, and its slope calculated. s[i]=slope of mouse[i]'s linear regression

| SMILES | half-life in plasma [1] [h] | survival of mice [2] | tumor growth ([3]; versus controls) | mean slope of linear regression of tumor burden versus day ([3]; days 0-32) |
| --- | --- | --- | --- | --- |
| Nc1ccc2nc3c4ccccc4c(=O)c(Cl)c-3oc2c1 [MCHB, 9-p amino-6-chloro-5H-benzo′a″phenoxazine-5-one] | 8.3 |  |  |  |
| O=c1c(Cl)c2oc3cc([N+](=O)[O-])ccc3nc-2c2ccccc12 [CNOB, 6-chloro-9-nitro-5-oxo-5H-benzo-(a)-phenoxazine] |  | marked improvement | no significant difference | 7.24 |
